Results as given in PMC4515243, “Phase 1 pharmacokinetic study of the oral pan-AKT inhibitor MK-2206 in Japanese patients with advanced solid tumors” (Cancer Chemotherapy and Pharmacology, 2015).

System: Japanese patients with advanced solid tumors
Experiment: phase 1 safety and tolerability (DLT, adverse events) in Japanese patients;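 further: toxicities graded by NCI CTCAE version 3.0, treatment given until disease progression or unacceptable toxicity, three to nine patients enrolled per dose level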
Text: Treatment was continued until disease progression or the occurrence of an unacceptable toxicity.
A minimum of three and up to nine patients were enrolled at each dose level based on the toxicity probability intervals [9].
Adverse events were graded using the National Cancer Institute Common Terminology Criteria for Adverse Events, version 3.0.

NC1(c2ccc(-c3nc4ccn5c(=O)[nH]nc5c4cc3-c3ccccc3)cc2)CCC1 [MK-2206]
0: ALT increased, drug-related adverse event, patients (45 mg QOD (n = 3), All grades) | Eosinophil count increased, drug-related adverse event, patients (45 mg QOD (n = 3), All grades) | Erythema multiforme, drug-related adverse event, patients (45 mg QOD (n = 3), All grades) | HbA1C increased, drug-related adverse event, patients (45 mg QOD (n = 3), All grades) | Hypernatremia, drug-related adverse event, patients (45 mg QOD (n = 3), All grades) | Hypoalbuminemia, drug-related adverse event, patients (45 mg QOD (n = 3), All grades) | Hypokalemia, drug-related adverse event, patients (45 mg QOD (n = 3), All grades) | Localized edema, drug-related adverse event, patients (45 mg QOD (n = 3), All grades) | Nausea, drug-related adverse event, patients (45 mg QOD (n = 3), All grades) | Vomiting, drug-related adverse event, patients (45 mg QOD (n = 3), All grades) | ALT increased, drug-related adverse event, patients (45 mg QOD (n = 3), Grades 3–5) | Blood creatinine increased, drug-related adverse event, patients (45 mg QOD (n = 3), Grades 3–5) | Decreased appetite, drug-related adverse event, patients (45 mg QOD (n = 3), Grades 3–5) | Dry skin, drug-related adverse event, patients (45 mg QOD (n = 3), Grades 3–5) | Eosinophil count increased, drug-related adverse event, patients (45 mg QOD (n = 3), Grades 3–5) | Eosinophilia, drug-related adverse event, patients (45 mg QOD (n = 3), Grades 3–5) | Erythema multiforme, drug-related adverse event, patients (45 mg QOD (n = 3), Grades 3–5) | Fatigue, drug-related adverse event, patients (45 mg QOD (n = 3), Grades 3–5) | HbA1C increased, drug-related adverse event, patients (45 mg QOD (n = 3), Grades 3–5) | Hyperglycemia, drug-related adverse event, patients (45 mg QOD (n = 3), Grades 3–5) | Hypernatremia, drug-related adverse event, patients (45 mg QOD (n = 3), Grades 3–5) | Hypoalbuminemia, drug-related adverse event, patients (45 mg QOD (n = 3), Grades 3–5) | Hypokalemia, drug-related adverse event, patients (45 mg QOD (n = 3), Grades 3–5) | Insulin c-peptide increased, drug-related adverse event, patients (45 mg QOD (n = 3), Grades 3–5) | Leukopenia, drug-related adverse event, patients (45 mg QOD (n = 3), Grades 3–5) | Localized edema, drug-related adverse event, patients (45 mg QOD (n = 3), Grades 3–5) | Nausea, drug-related adverse event, patients (45 mg QOD (n = 3), Grades 3–5) | Palmar-plantar erythrodysaesthesia syndrome, drug-related adverse event, patients (45 mg QOD (n = 3), Grades 3–5) | Pruritus, drug-related adverse event, patients (45 mg QOD (n = 3), Grades 3–5) | Pyrexia, drug-related adverse event, patients (45 mg QOD (n = 3), Grades 3–5) | Rash, drug-related adverse event, patients (45 mg QOD (n = 3), Grades 3–5) | Stomatitis, drug-related adverse event, patients (45 mg QOD (n = 3), Grades 3–5) | Vomiting, drug-related adverse event, patients (45 mg QOD (n = 3), Grades 3–5) | Dry skin, drug-related adverse event, patients (60 mg QOD (n = 9), All grades) | Eosinophil count increased, drug-related adverse event, patients (60 mg QOD (n = 9), All grades) | Erythema multiforme, drug-related adverse event, patients (60 mg QOD (n = 9), All grades) | Localized edema, drug-related adverse event, patients (60 mg QOD (n = 9), All grades)
5: Diarrhea, drug-related adverse event, patients (60 mg QOD (n = 9), All grades)
6: Eosinophilia, drug-related adverse event, patients (60 mg QOD (n = 9), All grades)
4: Fatigue, drug-related adverse event, patients (60 mg QOD (n = 9), All grades)
No DLTs: DLTs during Cycle 1 (45 mg QOD, three patients)
7: Insulin c-peptide increased, drug-related adverse event, patients (60 mg QOD (n = 9), All grades)
1: Blood creatinine increased, drug-related adverse event, patients (45 mg QOD (n = 3), All grades) | Decreased appetite, drug-related adverse event, patients (45 mg QOD (n = 3), All grades) | Diarrhea, drug-related adverse event, patients (45 mg QOD (n = 3), All grades) | Fatigue, drug-related adverse event, patients (45 mg QOD (n = 3), All grades) | Hyperglycemia, drug-related adverse event, patients (45 mg QOD (n = 3), All grades) | Palmar-plantar erythrodysaesthesia syndrome, drug-related adverse event, patients (45 mg QOD (n = 3), All grades) | Pruritus, drug-related adverse event, patients (45 mg QOD (n = 3), All grades) | Pyrexia, drug-related adverse event, patients (45 mg QOD (n = 3), All grades) | Diarrhea, drug-related adverse event, patients (45 mg QOD (n = 3), Grades 3–5) | Neutropenia, drug-related adverse event, patients (45 mg QOD (n = 3), Grades 3–5) | ALT increased, drug-related adverse event, patients (60 mg QOD (n = 9), All grades) | Blood creatinine increased, drug-related adverse event, patients (60 mg QOD (n = 9), All grades) | Decreased appetite, drug-related adverse event, patients (60 mg QOD (n = 9), All grades) | Hypernatremia, drug-related adverse event, patients (60 mg QOD (n = 9), All grades) | Hypokalemia, drug-related adverse event, patients (60 mg QOD (n = 9), All grades)
2: Dry skin, drug-related adverse event, patients (45 mg QOD (n = 3), All grades) | Eosinophilia, drug-related adverse event, patients (45 mg QOD (n = 3), All grades) | Insulin c-peptide increased, drug-related adverse event, patients (45 mg QOD (n = 3), All grades) | Leukopenia, drug-related adverse event, patients (45 mg QOD (n = 3), All grades) | Lymphopenia, drug-related adverse event, patients (45 mg QOD (n = 3), All grades) | Neutropenia, drug-related adverse event, patients (45 mg QOD (n = 3), All grades) | Stomatitis, drug-related adverse event, patients (45 mg QOD (n = 3), All grades) | Lymphopenia, drug-related adverse event, patients (45 mg QOD (n = 3), Grades 3–5) | HbA1C increased, drug-related adverse event, patients (60 mg QOD (n = 9), All grades) | Hypoalbuminemia, drug-related adverse event, patients (60 mg QOD (n = 9), All grades) | Leukopenia, drug-related adverse event, patients (60 mg QOD (n = 9), All grades)
3: Rash, drug-related adverse event, patients (45 mg QOD (n = 3), All grades) | Hyperglycemia, drug-related adverse event, patients (60 mg QOD (n = 9), All grades)
